This is an account of results in patent US10919896B2, “Preparation and uses of pyrimidinone derivatives” (Cancer Research Technology Limited, priority 2016, dated 2021).

Counter-ions that a name gives are not always drawn.

The target of assay [1] is T1, Cdc7/ASK (Homo sapiens, UniProt O00311). The experiment in a line: Cdc7 Biochemical Assay Method 4: off-chip mobility shift assay (Carna Biosciences). Details: purchased Carna Biosciences; host or cells: baculovirus expression system. The following applies: off-chip MSA, MCM2 peptide, 5 hours; read-out: Biochemical Method 4 (pIC50) (converted). As for the experimental part: This protocol describes a method for assaying Cdc7/ASK for activity. The assay is an off-chip mobility shift assay (MSA) run at Carna Biosciences.
T1 sequence (O00311 whole entry): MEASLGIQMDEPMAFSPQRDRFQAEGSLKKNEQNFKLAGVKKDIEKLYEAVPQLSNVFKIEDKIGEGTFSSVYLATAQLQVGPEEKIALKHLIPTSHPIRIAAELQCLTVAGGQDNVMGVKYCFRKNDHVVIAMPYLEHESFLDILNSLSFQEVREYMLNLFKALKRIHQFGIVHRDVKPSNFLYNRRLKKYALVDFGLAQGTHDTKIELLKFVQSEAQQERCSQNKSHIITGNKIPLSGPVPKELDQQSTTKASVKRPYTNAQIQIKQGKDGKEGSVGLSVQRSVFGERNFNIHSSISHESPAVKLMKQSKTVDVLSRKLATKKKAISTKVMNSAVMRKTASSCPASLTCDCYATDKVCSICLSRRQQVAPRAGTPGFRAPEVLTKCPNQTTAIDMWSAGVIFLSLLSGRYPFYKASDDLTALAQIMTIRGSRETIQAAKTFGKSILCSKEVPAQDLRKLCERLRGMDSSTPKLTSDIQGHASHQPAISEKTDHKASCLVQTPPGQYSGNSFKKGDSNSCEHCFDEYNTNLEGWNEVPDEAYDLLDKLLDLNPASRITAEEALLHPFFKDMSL
T1 sequence (Q9UBU7 whole entry partner): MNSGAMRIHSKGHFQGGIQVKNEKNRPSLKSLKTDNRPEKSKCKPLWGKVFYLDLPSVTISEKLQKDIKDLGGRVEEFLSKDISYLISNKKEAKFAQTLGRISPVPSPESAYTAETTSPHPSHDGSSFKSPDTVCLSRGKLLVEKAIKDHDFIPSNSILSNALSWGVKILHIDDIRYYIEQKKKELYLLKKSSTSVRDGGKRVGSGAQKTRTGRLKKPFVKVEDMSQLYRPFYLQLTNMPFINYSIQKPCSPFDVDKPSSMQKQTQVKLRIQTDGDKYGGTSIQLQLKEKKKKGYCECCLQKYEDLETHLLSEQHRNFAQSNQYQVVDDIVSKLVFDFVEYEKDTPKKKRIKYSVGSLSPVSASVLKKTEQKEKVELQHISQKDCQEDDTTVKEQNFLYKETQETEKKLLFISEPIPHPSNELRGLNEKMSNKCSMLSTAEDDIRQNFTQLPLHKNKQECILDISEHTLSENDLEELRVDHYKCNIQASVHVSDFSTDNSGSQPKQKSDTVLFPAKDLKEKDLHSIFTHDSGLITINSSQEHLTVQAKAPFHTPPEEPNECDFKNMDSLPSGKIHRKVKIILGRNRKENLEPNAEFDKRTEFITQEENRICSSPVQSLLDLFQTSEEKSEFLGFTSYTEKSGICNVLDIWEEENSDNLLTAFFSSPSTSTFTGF
1. Preparation of Test Compound Solution.
The test compound was dissolved in and diluted with dimethylsulfoxide (DMSO) to achieve 100-fold higher concentration which was specified by the sponsor. Then the solution was further 25-fold diluted with assay buffer to make the final test compound solution. Reference compounds for assay control were prepared similarly.
Cdc7/ASK: Full-length human Cdc7 [1-574(end) amino acids of accession number NP_003494.1] was co-expressed as N-terminal GST-fusion protein (92 kDa) with Dbf4(ASK) [1-674(end) amino acids of accession number NP_006707.1] using baculovirus expression system. GST-Cdc7 was purified by using glutathione sepharose chromatography.
3. Assay Reagents and Procedures
Off-chip Mobility Shift Assay (MSA)
1) The […] of ×2 kinase solution were prepared with assay buffer (20 mM HEPES, 0.01% Triton X-100, 1 mM DTT, pH 7.5) and mixed and incubated in a well of polypropylene 384 well microplate for 5 hours at room temperature. 2) […] of Termination Buffer (QuickScout Screening Assist MSA; Carna Biosciences) was added to the well. 3) The reaction mixture was applied to LabChip system (Perkin Elmer), and the product and substrate peptide peaks were separated and quantitated. 4) The kinase reaction was evaluated by the product ratio calculated from peak heights of product (P) and substrate (S) peptides (P/(P+S)).
Reaction time is 5 hours.
The readout value of reaction control (complete reaction mixture) was set as a 0% inhibition, and the readout value of background (Enzyme(−)) was set as a 100% inhibition, then the percent inhibition of each test solution was calculated.
IC50 value was calculated from concentration vs. % Inhibition curves by fitting to a four parameter logistic curve.

Assay [2] relates to Cdc7 (pS53MCM2 levels in SW48 cells). Put plainly: Cdc7 Cell Pharmacodynamics Assay Method 3: pS53MCM2 levels in SW48 cells, 6 hours. The class given is cell-based. Conditions: for EC50: Homo sapiens, SW48, 6 h, read-out: Biomarker Method 3 (pEC50) (converted). From the text: This protocol describes a method to investigate the inhibition of Cdc7 activity by measuring pS53MCM2 levels in cells, after treatment with compounds.
• SW48 cells • RPMI 1640 (Sigma, R5886) • 10% FCS (Sera Laboratories International Ltd, EU000F Batch:108005) • 100× L-Glutamine (Invitrogen, 25030-024) • D-Glucose Solution (10%) (Sigma, G8644) • HEPES Buffer Solution (Sigma, 83264) • Sodium Pyruvate (Sigma, S8636) • PBS (Fisger, BP399-4) • Trypsin/EDTA (Invitrogen 25300-054) • 2% BSA in PBS • Cell Extraction Buffer (Invitrogen FNN0011) • Protease inhibitor cocktail (Sigma P-2714) • PMSF 0.3M stock in DMSO (Sigma P7626) • Antibody-rabbit pMCM2 Ser53 (Bethyl #A300-756A) • Antibody-goat MCM2 (Bethyl #A300-122A) • Antibody-goat Anti Rabbit IgG HRP (Perbio Science UK Ltd 31462) • SuperSignal ELISA Pico Chemiluminescent Substrate (Perbio Science UK Ltd 37070) Method • Plate 30,000 SW48 cells per well in standard TC treated 96 well plate in 100 μL complete RPMI 1640 medium. • Allow cells to settle overnight in incubator set at 37° C. and 5% CO2. • Cell treatment: prepare a 384 well plate containing 80 μl PBS/well. The PBS should be at room temperature—to be referred to as intermediate plate. Transfer 2 μL of compound from mother plate to intermediate (daughter plate) 1:40 dilution, then 5 μL intermediate to cell (daughter) plate. • Once all cells are treated place the cells back to the incubator and incubate for 6 hours. • Dilute the capture antibody (total MCM2#A300-122A) 1 in 250 in the required volume of PBS (5 mL per assay plate, plus 5 mL for dead volume) and add 50 μL to each well of a Hybond plate. Seal the plate and incubate at room temperature for a minimum of 2 hours. • Defrost aliquot of Invitrogen Cell Extraction Buffer (FNN0011) on ice and supplement with appropriate volume of both Sigma protease inhibitor cocktail (P-2714) and PMSF (final conc 1 mM from a 1 M stock in DMSO). • After the 6 hour cell treatment time, tap out the media from the assay plates and place them in the −80° C. freezer for at least 5 minutes. • Remove plates from freezer and add 20 μL of ice cold complete lysis buffer, with the multidrop. Incubate cells for 30 minutes at 4° C. • Add 80 μL per well 2% BSA. • Flick out the remaining liquid from the capture plate and transfer 80 μL from the lysis plate to the same wells in the capture/ELISA plate, using the Biomek. Cover with plate seal and incubate plates overnight at 4° C. • Wash plates with PBS, remove any residual remaining liquid and add 50 μL per well of pMCM2 Ser53 antibody (#A300-756A) diluted 1 in 100 in 2% BSA. Cover plate and incubate at room temperature for 2 hours with gentle shaking. • Wash plates with PBS, remove any residual remaining liquid and Incubate with 50 μL goat anti rabbit antibody (1 in 800 dilution in 2% BSA), for 1 hour at room temperature. • Wash plates with PBS, remove any residual remaining liquid and add 50 μL mixed SuperSignal Pico substrate. • Incubate each plate for 5 minutes at room temperature shielding the plates from direct light (with a cover plate). Read plates with the luminescent detection.

In assay [3] the test system is Cdc7 (pS40MCM2 levels in HCT116 cells). Put plainly: Cdc7 Cell Pharmacodynamics Assay Method 2A: pS40MCM2 levels in HCT116 cells, 6 hours. Type of assay: cell-based. Conditions: Homo sapiens, HCT-116, read-out: Biomarker Method 2A (pEC50) (converted). From the text: This protocol describes a method to investigate the inhibition of Cdc7 activity by measuring pS40MCM2 levels in cells, after treatment with compounds.
• HCT116 cells (ATCC, #CCL-247) • McCoys 5A with L-glutamine (Cellgro, #10-050-CV) • 10% FCS (Cellgro, #35-010-CV) • D-PBS without CaCl2 and MgCl2 (Cellgro, #21-031-CV) • Trypsin/EDTA (Cellgro, #25-052-CL) • BSA (Calbiochem, 126593) • Cell Extraction Buffer (Invitrogen FNN0011) • Protease inhibitor cocktail (Sigma P-2714) • PMSF 0.3M stock in DMSO (Sigma P7626) • Antibody-rabbit pMCM2 Ser40 (Abcam, AB133243) • Antibody-goat MCM2 (Bethyl #A300-122A) • Antibody-goat Anti Rabbit IgG HRP (Thermo, 31462) • SuperSignal ELISA Pico Chemiluminescent Substrate (Perbio Science UK Ltd 37069) • 10×PBS (Growcells, MRGF-6236) • Triton X100 (Sigma, P-T8787) • DMSO (Fisher, D128-1) • 2-Propanol (J. T. Baker, 9095-03) Method • Seed 1×10^6 HCT116 cells into each of two 175 cm^2 flask containing 30 mL Cell Growth Media and incubate at 37° C., 5% CO2 for 3 days. • Harvest the cells from one T175 cm^2 flask and count. • Dilute with Cell Growth Media to a cell density of 2×10^5. Dispense 100 μL to each well (20,000 HCT116 cells/well) of TC treated 96-well plate(s). • Allow cells to settle overnight in incubator set at 37° C. and 5% CO2. • Cell treatment: Transfer 0.25 μL/well from the compound plate to the wells of the cell plate(s). This is a 1:400 dilution of compound in the assay. • Once all cells are treated place the cells back to the incubator and incubate for either 6 hours (Method 2A) or 18 hours (Method 2B). • Dilute the capture antibody (total MCM2#A300-122A) 1 in 250 in the required volume of PBS (5 mL per assay plate, plus 5 mL for dead volume) and add 50 μL to each well of a Hybond plate except wells A12 & B12. Seal the plate and incubate at room temperature for a minimum of 2 hours. • Defrost aliquot of Invitrogen Cell Extraction Buffer (FNN0011) on ice and supplement with appropriate volume of both Sigma protease inhibitor cocktail (P-2714) and PMSF (final conc 1 mM from a 1 M stock in DMSO). • After the 6 hour or 18 hour cell treatment time, tap out the media from the assay plates and place them in the −70° C. freezer for at least 5 minutes. • Flick out the remaining liquid in the previously prepared capture Ab plate(s) and add 200 μL 2% BSA per well. Incubate for 1 hour at room temperature. • Remove plates from freezer and add 20 μL of ice cold complete lysis buffer. Incubate cells for 30 minutes at 4° C. • Add 30 μL per well 2% BSA • At the end of the 1 hour incubation, wash the Capture/ELISA plate(s) with Wash Buffer on the BioTek plate washer. • Transfer 40 μL per well of the lysis plate(s) to the same wells in the Capture/ELISA plate. Incubate cells overnight at 4° C. • At the end of the overnight incubation, wash the ELISA plate(s) with Wash Buffer on BioTek plate washer. • Prepare Detection Antibody Buffer and dispense 50 μL to all wells of ELISA plate(s) except wells G1 & H1. Cover plate and incubate at room temperature for 2 hours with gentle shaking. • At the end of the 2 hour incubation, wash the ELISA plate(s) with Wash Buffer on the BioTek plate washer. • Prepare the Conjugated Antibody Buffer and dispense 50 μL to all wells of ELISA plate(s). • Cover the plate and incubate at room temperature for 1 hour with gentle shaking. • At the end of the 1 hour incubation, wash the ELISA plate(s) with Wash Buffer on the BioTek plate washer. • Prepare Substrate Buffer and dispense 50 μL to all wells of ELISA plate(s). • Incubate for a minimum of 10 minutes and read plates on the EnVision 2100 Multilabel Reader (Mirror: Luminescence (404) & Luminescence 700 (212); Measurement Height: 6.5 mm; Measurement Time: 0.2 s). Method 3

In another assay the target is Cdc7/Dbf4 (Homo sapiens, UniProt O00311). Put plainly: Cdc7 Biochemical Assay Method 3: Cdc7/Dbf4 Enzyme TR-FRET Assay measuring pS40MCM2. The following applies: 1 μM ATP, read-out: Biochemical Method 3 (pIC50) (converted). A digest of the protocol:
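TR-FRET read-out (terbium anti-rabbit donor, streptavidin-Alexa Fluor488 acceptor, anti-Mcm2 pS40 antibody) of peptide phosphorylation after 120 min at 25° C; reaction held 1 μM ATP, 100 nM biotin-tagged peptide substrate and 2.5 nM enzyme complex.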

Assay [4] concerns the target T1, Cdc7/ASK. Put plainly: Cdc7 Biochemical Assay Method 2: 384 well mobility shift assay (EZ Reader II), MCM2 peptide substrate. Details: purchased. The following applies: 12.5 μM ATP, read-out: Biochemical Method 2 (pIC50) (converted). As for the experimental part: This protocol describes a method for assaying Cdc7/ASK for activity. The assay is a 384 well mobility shift assay (MSA) run on the EZ Reader II microfluidics plate reader (Caliper LifeSciences), utilising a peptide substrate based on the MCM2 sequence. The assay technology is based on the change in mobility between the peptide substrate and the phosphorylated product. A 10 nL volume of the reaction mixture is sipped onto the microfluidic chip where the substrate and product are separated by electrophoresis and detected via laser-induced fluorescence (488 nm LED). The reaction can be monitored in real-time for kinetic experiments or as an end-point for IC50 determinations. The % conversion of substrate is calculated from peak heights of product (P) and substrate (S) peptides (% conversion=P/(P+S)*100).
• 10× Assay Buffer: 200 mM HEPES pH 8, 100 mM MgCl2, 0.1% v/v Triton X-100 and 15 mM DTT. Prepare fresh buffer from 1 M HEPES pH 8, 1 M MgCl2, 1 M DTT and 10% Triton x-100 stocks for each experiment. • Cdc7/ASK is purchased from commercial suppliers and used in the assay at a final assay concentration of 0.847 ng/μL or 9.2 nM. • MCM2 peptide is purchased from commercial suppliers and used in the assay at a final assay concentration of 2.5 μM. • ATP used in the assay at a final assay concentration of 12.5 μM. Methods • 1. Prepare intermediate (daughter) compound plate by transferring 2 μL of compound from the mother plate to 18 μL of 33.3% DMSO in a clear polypropylene plate. • 2. Dry-spot 1 μL of compound from the intermediate compound plate to empty assay plate. • 3. Add 5 μL of 1.694 ng/μL CDC7/ASK working solution to ‘test’ and ‘control’ wells or […] of 2× Assay Buffer to ‘blank’ wells. • 4. Add 4 μL 2.5 μM peptide/12.5 μM ATP working solution to all wells. • 5. Incubate at 37° C. for 1 hour then remove from the incubator and leave for a further 1 hour at room temperature. • 6. Place plate into an EZReader II to read.
Percentage inhibition values were calculated from % of substrate conversion values, using the no compound (DMSO) and no enzyme control values as 0% and 100% inhibition, respectively. IC50 determination was performed with ExcelFit software (IDBS) using curve fit 205. Z′ factors were determined for each plate tested and were all above 0.5.

Sequence of Cdc7/Dbf4 (O00311 whole entry): as the sequence (O00311 whole entry) above
Sequence of Cdc7/Dbf4 (Q9UBU7 whole entry partner): as the sequence (Q9UBU7 whole entry partner) above

`O=c1[nH]c(-c2ccncc2)nc(N2CCNCC2C(F)F)c1Cl` (stereo not shown) [Compound 391]: the IC50 at Cdc7/ASK [1] was 35.5 nM. Moreover, the EC50 in assay [2] was 3550 nM.
The corresponding values for `CC(F)(F)C1CNCCN1c1nc(-c2ccnc(F)c2)[nH]c(=O)c1Cl` (stereo not shown) [Compound 392] are 38.9 nM and 5750 nM.
As to `CC(C)(F)C1CN(c2nc(-c3ccnc(F)c3)[nH]c(=O)c2Cl)CCN1` (single isomer, unassigned) [Compound 381, 5-chloro-4-[3-(1-fluoro-1-methyl-ethyl)piperazin-1-yl]-2-(2-fluoro-4-pyridyl)-1H-pyrimidin-6-one hydrochloride], the IC50 on Cdc7/ASK [1] is 70.8 nM. In addition, the “Biomarker Method 3 (pEC50)” value in assay [2] (hydrochloride) worked out at 5.32.
In the case of `O=c1[nH]c(-c2ccnc(F)c2)nc(N2CCNCC(F)C2)c1Cl` (stereo not shown) [Compound 373], the IC50 on Cdc7/ASK [1] is 5.25 nM. Further, the EC50 in assay [2] is 389 nM.
The corresponding values for `O=c1[nH]c(-c2ccnc(F)c2)nc(N2CCNCC(C(F)(F)F)C2)c1Cl` (stereo not shown) [Compound 375] are 7.41 nM and 1230 nM.
Consider `N[C@H]1CCN(c2nc(-c3ccnc(F)c3)[nH]c(=O)c2Cl)C1` [Compound 320], for which the EC50 in assay [3] is 316 nM. Further, the IC50 on Cdc7/Dbf4 is 0.794 nM; on Cdc7/ASK [4], 3.72 nM.
